According to the OligoGym collection:
Values joined by “and” are separate entries in the source; they are usually repeats but may differ in a detail not shown here. Equal values may be shown once. After the bases stand the sugars from the 5' end (letter, count) and the backbone: PS all phosphorothioate, else s phosphorothioate and o phosphodiester by linkage. Methylation of C is not given here. e = 2'-O-(2-methoxyethyl) (MOE); k = constrained ethyl (cEt); d = 2'-deoxy (DNA); m = 2'-O-methyl

Biological target: HSD17B13
Settings: ASO, HepaRG

Sequence | target mRNA inhibition (1 µM) | further results
TAGCTAAGTATACTTT (sugars k3 d10 k3, PS) | 10% | –
TAGCTTTTGTCCACCT (sugars kkdddddddddkekek, PS) | 71% | target mRNA inhibition (0.02 µM): 0%; target mRNA inhibition (0.078 µM): 3%; target mRNA inhibition (0.313 µM): 29%; target mRNA inhibition (1.25 µM): 53%; target mRNA inhibition (5 µM): 48%
TAGCUGTGCACTCATT (sugars k3 d1 m1 d8 k3, PS) | 60% | –
TAGCUTTTGTCCACCT (sugars k3 d1 m1 d8 k3, PS) | 67% and 50% | target mRNA inhibition (0.02 µM): 8%; target mRNA inhibition (0.078 µM): 9%; target mRNA inhibition (0.313 µM): 26%; target mRNA inhibition (1.25 µM): 54%; target mRNA inhibition (5 µM): 78%
TAGGAAGTGATCCATA (sugars k3 d10 k3, PS) | 30% | –
TAGGATGATGTTCATG (sugars k3 d10 k3, PS) | 72% | –
TAGGATGTTGACCTCA (sugars k3 d10 k3, PS) | 19% | –
TAGGATTAATTCCCTT (sugars k3 d10 k3, PS) | 0% | –
TAGTATAGTTATCTTC (sugars k3 d1 m1 d8 k3, PS) | 13% | –
TAGTATTTGGGTGTTC (sugars k3 d10 k3, PS) | 27% | –
TAGTCCTAGGGAGGAG (sugars k3 d10 k3, PS) | 68% | –
TAGTCTTCAGCAAAGT (sugars kkdddddddddkekek, PS) | 35% | –
TAGTCTTGATGTAGTG (sugars k3 d1 m1 d8 k3, PS) | 56% | –
TAGTGTAAGCTGAGAG (sugars kkdddddddddkekek, PS) | 68% | target mRNA inhibition (0.02 µM): 24%; target mRNA inhibition (0.078 µM): 25%; target mRNA inhibition (0.313 µM): 37%; target mRNA inhibition (1.25 µM): 51%; target mRNA inhibition (5 µM): 81%
TATACTAGGATTAGAA (sugars k3 d10 k3, PS) | 2% | –
TATACTGTCCCAGCAT (sugars k3 d10 k3, PS) | 40% | –
TATAGACTGGGTAGGA (sugars k3 d1 m1 d8 k3, PS) | 30% | –
TATAGAGGGTCCACTT (sugars k3 d10 k3, PS) | 17% | –
TATAGTTATCTTCTCA (sugars kkdddddddddkekek, PS) | 45% | –
TATATAACATGGCTGG (sugars k3 d10 k3, PS) | 8% | –
TATATGAGGTCTGTAT (sugars k3 d10 k3, PS) | 42% | –
TATCAATGCCTTAGCC (sugars k3 d10 k3, PS) | 15% | –
TATCAGAAACTTATAC (sugars k3 d10 k3, PS) | 0% | –
TATCATACCACATACC (sugars k3 d10 k3, PS) | 24% | –

Sequence | target mRNA inhibition (1 µM) | further results
TATCTTATAAGACTAT (sugars k3 d10 k3, PS) | 43% | –
TATGAGTAAAGATCTA (sugars k3 d10 k3, PS) | 10% | –
TATGUAATAGCCAGTA (sugars k3 d1 m1 d8 k3, PS) | 43% | –
TATTAGAAGTCAGCCC (sugars k3 d1 m1 d8 k3, PS) | 29% | –
TATTAGAAGTCAGCCC (sugars k3 d10 k3, PS) | 27% | –
TATTAGAAGTCAGCCC (sugars kkdddddddddkekek, PS) | 36% | –
TATTATGTGATTGAGT (sugars k3 d1 m1 d8 k3, PS) | 28% | –
TATTCCCAACGCAACA (sugars k3 d10 k3, PS) | 62% | –
TATTCTGTGGCATGGC (sugars k3 d10 k3, PS) | 71% | –
TATTGGTAAGTATTCC (sugars kkdddddddddkekek, PS) | 36% | –
TATTTCGCTACTGTAG (sugars k3 d10 k3, PS) | 48% | –
TCAAATGAGGCGGCAC (sugars k3 d10 k3, PS) | 46% | –
TCAAATTAAGATGTCC (sugars k3 d10 k3, PS) | 6% | –
TCAACCTGCACACCAT (sugars k3 d10 k3, PS) | 72% | target mRNA inhibition (0.02 µM): 14%; target mRNA inhibition (0.078 µM): 32%; target mRNA inhibition (0.313 µM): 47%; target mRNA inhibition (1.25 µM): 71%; target mRNA inhibition (5 µM): 84%
TCAACTAAACATGACA (sugars k3 d10 k3, PS) | 77% | target mRNA inhibition (0.02 µM): 0%; target mRNA inhibition (0.078 µM): 0%; target mRNA inhibition (0.313 µM): 42%; target mRNA inhibition (1.25 µM): 69%; target mRNA inhibition (5 µM): 89%
TCAAGACATTCTAGCC (sugars k3 d10 k3, PS) | 79% | –
TCAATTTATCATACCA (sugars k3 d10 k3, PS) | 26% | –
TCACATATGTGAAGAG (sugars k3 d10 k3, PS) | 27% | –
TCACCAACGACTCCAA (sugars k3 d10 k3, PS) | 19% | –
TCAGATCCCGTTCTTG (sugars k3 d10 k3, PS) | 59% | –
TCATAAGTAGTCTGCC (sugars k3 d10 k3, PS) | 62% | –
TCATAGTGGACTTCAT (sugars k3 d1 m1 d8 k3, PS) | 44% | –
TCATAGTGGACTTCAT (sugars k3 d9 k3 e1, PS) | 54% | –
TCATTAAGCTTAGTAT (sugars k3 d10 k3, PS) | 31% | –

Sequence | target mRNA inhibition (1 µM) | further results
TCCAAAAGTGTCCTCG (sugars k3 d10 k3, PS) | 31% | –
TCCAAGGAGTGCATCT (sugars k3 d10 k3, PS) | 46% | –
TCCAATTTAAATCAGG (sugars k3 d10 k3, PS) | 61% | –
TCCAGTAAAAAATTGG (sugars k3 d10 k3, PS) | 12% | –
TCCAGTAGGTGTGTTT (sugars k3 d10 k3, PS) | 47% | –
TCCATAATAATAGCTC (sugars kkdddddddddkekek, PS) | 41% | –
TCCATCTATCAGACTT (sugars k3 d10 k3, PS) | 42% | –
TCCATGCAAAAGCATT (sugars k3 d10 k3, PS) | 62% | –
TCCATTGAATCTTCAA (sugars k3 d10 k3, PS) | 57% | –
TCCAUAATAATAGCTC (sugars k3 d1 m1 d8 k3, PS) | 58% | –
TCCCAACCCAAGCTAC (sugars k3 d10 k3, PS) | 8% | –
TCCCAAGGCCTGAAGT (sugars k3 d10 k3, PS) | 43% | –
TCCGGTAAGAATTTCG (sugars k3 d10 k3, PS) | 63% | –
TCCTGTGTTAGCTTTA (sugars k3 d9 k3 e1, PS) | 75% and 50% | target mRNA inhibition (0.02 µM): 0%; target mRNA inhibition (0.078 µM): 0%; target mRNA inhibition (0.313 µM): 34%; target mRNA inhibition (1.25 µM): 50%; target mRNA inhibition (5 µM): 81%
TCGGCACTCAGCTGCA (sugars k3 d10 k3, PS) | 52% | –
TCGGCTGGATATACTG (sugars k3 d10 k3, PS) | 23% | –
TCGGGAAGTTTAGACA (sugars k3 d10 k3, PS) | 43% | –
TCTAAACATCTCTGGG (sugars k3 d1 m1 d8 k3, PS) | 36% | –
TCTAAACATCTCTGGG (sugars k3 d10 k3, PS) | 40% | –
TCTAAACATCTCTGGG (sugars kkdddddddddkekek, PS) | 21% | –
TCTAAACTAGTGGTAA (sugars k3 d10 k3, PS) | 24% | –
TCTAAGTTAGCCCCCA (sugars k3 d1 m1 d8 k3, PS) | 7% | –
TCTACCACATACGCAT (sugars k3 d10 k3, PS) | 55% | –
TCTATTAGTTGGCCTG (sugars k3 d10 k3, PS) | 26% | –

Sequence | target mRNA inhibition (1 µM) | further results
TCTATTGATTGGCTTA (sugars k3 d10 k3, PS) | 39% | –
TCTCCATCATCGATGG (sugars k3 d10 k3, PS) | 24% | –
TCTCTTAGCTGTGCAC (sugars k3 d10 k3, PS) | 79% | target mRNA inhibition (0.02 µM): 15%; target mRNA inhibition (0.078 µM): 30%; target mRNA inhibition (0.313 µM): 52%; target mRNA inhibition (1.25 µM): 74%; target mRNA inhibition (5 µM): 89%
TCTCUTGACAATGGTT (sugars k3 d1 m1 d8 k3, PS) | 62% | –
TCTGGGACCAAGGATA (sugars k3 d9 k3 e1, PS) | 57% | –
TCTTAAACCTTCCCTG (sugars kkdddddddddkekek, PS) | 24% | –
TCTTAAGATACCCAGG (sugars k3 d10 k3, PS) | 58% | –
TCTTAAGGATCATTGC (sugars k3 d10 k3, PS) | 0% | –
TCTTAGCTGTGCACTC (sugars k3 d1 m1 d8 k3, PS) | 71% | –
TCTTATTGGTAAGTAT (sugars k3 d10 k3, PS) | 25% | –
TCTTGACAATGGTTGA (sugars kkdddddddddkekek, PS) | 40% | –
TCTTGGGTCCATTGTT (sugars k3 d10 k3, PS) | 60% | –
TCTTTTTATAGACTGG (sugars k3 d10 k3, PS) | 82% | target mRNA inhibition (0.02 µM): 0%; target mRNA inhibition (0.078 µM): 0%; target mRNA inhibition (0.313 µM): 35%; target mRNA inhibition (1.25 µM): 55%; target mRNA inhibition (5 µM): 90%
TGAACAGTCTTAAACC (sugars k3 d1 m1 d8 k3, PS) | 57% | –
TGAACCCAGTATTCAC (sugars k3 d10 k3, PS) | 10% | –
TGAAGTTAGTATAGTT (sugars k3 d9 k3 e1, PS) | 70% | –
TGAATAGCAAGCCAAC (sugars k3 d10 k3, PS) | 4% | –
TGACAACAGAGTTCTG (sugars k3 d10 k3, PS) | 11% | –
TGACAATGGTTGATAG (sugars k3 d10 k3, PS) | 16% | –
TGACAATGGTTGCCAC (sugars k3 d1 m1 d8 k3, PS) | 55% | –
TGACAATGGTTGCCAC (sugars k3 d9 k3 e1, PS) | 45% | –
TGAGAAGATCGGCTGG (sugars k3 d10 k3, PS) | 37% | –
TGAGAGAACTTATACA (sugars k3 d10 k3, PS) | 32% | –
